Source: the NIST ThermoML archive (doi:10.1016/j.jct.2013.11.003)
± gives the expanded uncertainty stated by the source.

Details: Liquid, Transpiration method

COc1cccs1 [2-methoxythiophene]
Details | vapor or sublimation pressure [kPa]
278.1 K | 0.1302 ± 0.0068
281 K | 0.1585 ± 0.0082
283 K | 0.1804 ± 0.0095
285.9 K | 0.2284 ± 0.012
287.8 K | 0.2708 ± 0.014
290.7 K | 0.3244 ± 0.017
292.7 K | 0.3939 ± 0.02
295.7 K | 0.4587 ± 0.024
297.6 K | 0.5406 ± 0.028
300.6 K | 0.6383 ± 0.033
302.6 K | 0.6976 ± 0.036
305.6 K | 0.8682 ± 0.045
307.6 K | 0.9894 ± 0.051
310.6 K | 1.147 ± 0.059
312.6 K | 1.336 ± 0.069
312.7 K | 1.299 ± 0.067
313.6 K | 1.366 ± 0.071
315.6 K | 1.559 ± 0.08
318.6 K | 1.83 ± 0.094
321.7 K | 2.196 ± 0.11
323.7 K | 2.471 ± 0.13

COc1ccsc1 [3-methoxythiophene]
Details | vapor or sublimation pressure [kPa]
278.1 K | 0.089 ± 0.0047
281 K | 0.1105 ± 0.0058
283.9 K | 0.1366 ± 0.0071
286.8 K | 0.1662 ± 0.0087
289.7 K | 0.2094 ± 0.011
292.6 K | 0.2646 ± 0.014
295.7 K | 0.32 ± 0.016
297.6 K | 0.3561 ± 0.018
300.6 K | 0.4274 ± 0.022
303.6 K | 0.5203 ± 0.027
306.6 K | 0.6282 ± 0.033
309.6 K | 0.7649 ± 0.039
312.6 K | 0.9169 ± 0.047
315.7 K | 1.078 ± 0.055
318.7 K | 1.313 ± 0.067
321.7 K | 1.536 ± 0.078
324.7 K | 1.765 ± 0.089
